The record followed here is patent EP4806900A2, “RAS INHIBITORS” (Revolution Medicines, Inc., priority 2019, dated 2021).

A word on the IC50: it is the concentration that gives 50% inhibition.

The test system of the first assay is NCI-H358 (K-Ras G12C). Description: CellTiter-Glo cell viability assay, NCI-H358. It is filed as cell-based, human. Conditions: Homo sapiens, NCI-H358, Table 5; read-out: H358 Cell Viability assay data (K-Ras G12C, IC50). In outline:
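Compounds dispensed directly onto plated NCI-H358 cells; plates equilibrated to room temperature on day 5 before luminescence read-out. Signal normalized to mean DMSO control (%) and fitted by four-parameter logistic.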
For `CO[C@@H](C)c1ncccc1-c1c2c3cc(ccc3n1CC(F)(F)F)-c1csc(n1)C[C@H](NC(=O)[C@H](C(C)C)N(C)C(=O)N1C[C@@H]3OCCN(C(=O)/C=C/CN(C)C)[C@@H]3C1)C(=O)N1CCC[C@H](N1)C(=O)OCC(C)(C)C2` (atropisomer, axis not shown) [Compound A573], the IC50 lay in the range of 0.01 to 0.1 µM.

Regarding `C=CC(=O)N1CC[C@H](C(=O)N(C)C(C(=O)N[C@H]2C[C@H]3CN(CCO3)c3ccc4c(c3)c(c(-c3cccnc3[C@H](C)OC)n4CC)CC(C)(C)COC(=O)[C@@H]3CCCN(N3)C2=O)C(C)C)C1` (some centres unmarked) [Compound A507], the IC50 is 0.1 to 1 µM.

For the compound `C=CC(=O)N1CC[C@H](C(=O)N(C)[C@H](C(=O)N[C@H]2CC3=NN=C(O3)c3ccc4c(c3)c(c(-c3cccnc3[C@H](C)OCC)n4CC(F)(F)F)CC(C)(C)COC(=O)[C@@H]3CCCN(N3)C2=O)C(C)C)C1` [Compound A424], the concentration for half-maximal inhibition (IC50) fell in the range of 0.1 to 1 µM.

As for `CO[C@@H](C)c1ncccc1-c1c2c3cc(ccc3n1CC(F)(F)F)-c1csc(n1)C[C@H](NC(=O)[C@H](C(C)C)N(C)C(=O)N1C[C@@H]3OCCN(C(=O)/C=C/C(F)F)[C@@H]3C1)C(=O)N1CCC[C@H](N1)C(=O)OCC(C)(C)C2` (atropisomer, axis not shown) [Compound A572], the IC50 is below 0.01 µM.

Turning to `CO[C@@H](C)c1ncc(N2CCN(C)CC2)cc1-c1c2c3cc(ccc3n1CC(F)(F)F)-c1cccc(c1)C[C@H](NC(=O)[C@H](C(C)C)N(C)C(=O)C1(F)CCN(C(=O)C#CC(C)(C)N(C)C)CC1)C(=O)N1CCC[C@H](N1)C(=O)OCC(C)(C)C2` [Compound A542, 1-(4-(dimethylamino)-4-methylpent-2-ynoyl)-4-fluoro-N-((2S)-1-(((6^1S,4S)-1^2-(2-((S)-1-methoxyethyl)-5-(4-methylpiperazin-1-yl)pyridin-3-yl)-10,10-dimethyl-5,7-dioxo-1^1-(2,2,2-trifluoroethyl)-6^1,6^2,6^3,6^4,6^5,6^6-hexahydro-1^1H-8-oxa-1(5,3)-indola-6(1,3)-pyridazina-2(1,3)-benzenacycloundecaphane-4-yl)amino)-3-methyl-1-oxobutan-2-yl)-N-methylpiperidine-4-carboxamide], the IC50 is below 0.01 µM.

Take `C=CC(=O)N1CC(CN2C(=O)O[C@H](C)[C@H]2C(=O)N[C@H]2Cc3cccc(c3)-c3ccc4c(c3)c(c(-c3cccnc3[C@H](C)OC)n4CC)CC(C)(C)COC(=O)[C@@H]3CCCN(N3)C2=O)C1` (atropisomer, axis not shown) [Compound A460]: the IC50 is above 1 µM.

For the compound `C=CC(=O)N1CC[C@H](C(=O)N(C)[C@H](C(=O)N[C@H]2CC3=CCCN(C3)c3ccc4c(c3)c(c(-c3cccnc3[C@H](C)OC)n4CC)CC(C)(C)COC(=O)[C@@H]3CCCN(N3)C2=O)C(C)C)C1` (atropisomer, axis not shown) [Compound A486], the IC50 was 0.1 to 1 µM.

Take `CO[C@@H](C)c1ncccc1-c1c2c3cc(ccc3n1CC(F)(F)F)-c1nc(nn1C)C[C@H](NC(=O)[C@H](C(C)C)N(C)C(=O)C1(F)CCN(C(=O)C#CC(C)(C)N(C)C)CC1)C(=O)N1CCC[C@H](N1)C(=O)OCC(C)(C)C2` (atropisomer, axis not shown) [Compound A577]: the IC50 was below 0.01 µM.

Still in this assay, the particulars now being: Homo sapiens, NCI-H358, read-out: H358 Cell Viability assay data (K-Ras G12C, IC50, uM), Table 5.
Turning to `CO[C@@H](COC1CN(C(=O)C#CC(C)(C)N(C)C)C1)C(=O)N[C@H]1Cc2cccc(c2)-c2ccc3c(c2)c(c(-c2cccnc2[C@H](C)OC)n3CC(F)(F)F)CC(C)(C)COC(=O)[C@@H]2CCCN(N2)C1=O` [Compound A556], the IC50 was below 0.01 µM.

On to `C=CC(=O)N1CC[C@H](C(=O)N(C)[C@H](C(=O)N[C@H]2Cc3cc(O)cc(c3)-c3ccc4c(c3)c(c(-c3cc(C)cnc3[C@H](C)OC)n4CC)CC(C)(C)COC(=O)[C@@H]3CCCN(N3)C2=O)C(C)C)C1` [Compound A167], for which the IC50 was below 0.01 µM.

As to `CCn1c(-c2cccnc2[C@H](C)OC)c2c3cc(ccc31)-c1cc(O)cc(c1)C[C@H](NC(=O)[C@H](C(C)C)N(C)C(=O)[C@H]1CCN(C(=O)C#CCN3CCOCC3)C1)C(=O)N1CCC[C@H](N1)C(=O)OCC(C)(C)C2` [Compound A182], the half-maximal inhibitory concentration (IC50) is below 0.01 µM.

With `C=CC(=O)N1CC[C@H](C(=O)N(C)[C@H](C(=O)N[C@H]2Cc3nc(cs3)-c3ccc4c(n3)c(c(-c3cccnc3[C@H](C)OC)n4CC)CC(C)(C)COC(=O)[C@@H]3CCCN(N3)C2=O)C(C)C)C1` [Compound A347, (2S)-N-[(7S,13S)-21-ethyl-20-{2-[(1S)-1-methoxyethyl]pyridin-3-yl}-17,17-dimethyl-8,14-dioxo-15-oxa-4-thia-9,21,25,27,28-pentaazapentacyclo[17.5.2.1^{2,5}.1^{9,13}.0^{22,26}]octacosa-1(25),2,5(28),19,22(26),23-hexaen-7-yl]-3-methyl-2-{N-methyl-1-[(3S)-1-(prop-2-enoyl)pyrrolidin-3-yl]formamido}butanamide], the IC50 lay in the range of 0.1 to 1 µM.

Still in this assay, the particulars now being: Table 5; read-out: H358 Cell Viability assay data (K-Ras G12C, IC50).
In the case of `C=CC(=O)N1CC[C@H](C(=O)N(C)[C@H](C(=O)N[C@H]2Cc3cc(O)cc(c3)-c3ccc4c(c3)c(c(-c3cccnc3)n4C(C)(C)C#N)CC(C)(C)COC(=O)[C@@H]3CCCN(N3)C2=O)C(C)C)C1` [Compound A74], the half-maximal inhibitory concentration (IC50) lay within 0.01 to 0.1 µM.

On to `C=CC(=O)N1CC[C@H](C(=O)N(C)[C@H](C(=O)N[C@H]2Cc3cc(O)cc(c3)-c3ccc4c(c3)c(c(-c3cncc(CN(C)C)c3)n4CC)CC(C)(C)COC(=O)[C@@H]3CCCN(N3)C2=O)C(C)C)C1` [Compound A73], for which the IC50 lay within 0.01 to 0.1 µM.

As to `C=CC(=O)N1CC[C@H](C(=O)N(C)[C@H](C(=O)N[C@H]2Cc3cc(O)cc(c3)-c3ccc4c(c3)c(c(-c3ccccc3OC)n4CC)CC(C)(C)COC(=O)[C@@H]3CCCN(N3)C2=O)C(C)C)C1` [Compound A17], the IC50 is 0.1 to 1 µM.

With `CCn1c(-c2cccnc2COC)c2c3cc(ccc31)-c1cc(O)cc(c1)C[C@H](NC(=O)[C@H](C(C)C)N(C)C(=O)C1CN(C(=O)C#CCN(C)C)C1)C(=O)N1CCC[C@H](N1)C(=O)OCC(C)(C)C2` [Compound A97], the IC50 was in the range of 0.01 to 0.1 µM.

Regarding `C=CC(=O)N1CC2(CCN([C@H](C(=O)N[C@H]3Cc4cc(O)cc(c4)-c4ccc5c(c4)c(c(-c4ccccc4CCOC)n5CC)CC(C)(C)COC(=O)[C@@H]4CCCN(N4)C3=O)C(C)C)C2=O)C1` [Compound A31], the IC50 was 0.01 to 0.1 µM.

`C=CC(=O)N1CC[C@H](C(=O)N(C)[C@H](C(=O)N[C@H]2Cc3cc(O)cc(c3)-c3ccc4c(c3)c(c(-c3ccccc3[C@H](C)OC)n4CC)CC(C)(C)COC(=O)[C@@H]3CCCN(N3)C2=O)C(C)C)C1` [Compound A22]: the IC50 fell in the range of 0.01 to 0.1 µM.

For the compound `C=CC(=O)N1CC[C@H](C(=O)N(C)[C@H](C(=O)N[C@H]2Cc3cc(O)cc(c3)-c3ccc4c(c3)c(c(-c3ccncc3)n4C(C)(C)C#N)CC(C)(C)COC(=O)[C@@H]3CCCN(N3)C2=O)C(C)C)C1` [Compound A86], the IC50 was in the range of 0.01 to 0.1 µM.

For `CCn1c(-c2cccnc2COC)c2c3cc(ccc31)-c1cc(O)cc(c1)C[C@H](NC(=O)[C@H](C(C)C)N(C)C(=O)C1CN(C(=O)/C=C/CN(C)C)C1)C(=O)N1CCC[C@H](N1)C(=O)OCC(C)(C)C2` [Compound A71, (2S)-2-(1-{1-[(2E)-4-(dimethylamino)but-2-enoyl]azetidin-3-yl}-N-methylformamido)-N-[(8S,14S)-22-ethyl-4-hydroxy-21-[2-(methoxymethyl)pyridin-3-yl]-18,18-dimethyl-9,15-dioxo-16-oxa-10,22,28-triazapentacyclo[18.5.2.1^2,6.1^10,^14.0^23,^27]nonacosa-1(26),2,4,6(29),20,23(27),24-heptaen-8-yl]-3-methylbutanamide], the IC50 was in the range of 0.1 to 1 µM.

Take `C=CC(=O)N1CC[C@H](C(=O)N(C)[C@H](C(=O)N[C@H]2Cc3cc(O)cc(c3)-c3ccc4c(c3)c(c(-c3ccc(C5CCN(C)CC5)nc3)n4CC)CC(C)(C)COC(=O)[C@@H]3CCCN(N3)C2=O)C(C)C)C1` [Compound A98]: the IC50 is 0.01 to 0.1 µM.

Turning to `CCn1c(-c2cccnc2C(C)OC)c2c3cc(ccc31)-c1cccc(c1)C[C@H](NC(=O)[C@H](C(C)C)N(C)C(=O)N1CCC13CN(C(=O)C#CC(C)(C)N(C)C)C3)C(=O)N1CCC[C@H](N1)C(=O)OCC(C)(C)C2` (some centres unmarked) [Compound A717], the IC50 fell in the range of 0.01 to 0.1 µM.

For the compound `C=CC(=O)N1CC[C@H](C(=O)N(C)[C@H](C(=O)N[C@H]2Cc3cc(O)cc(c3)-c3ccc4c(c3)c(c(-c3cccnc3)n4CC)CC(C)(C)COC(=O)[C@@H]3CCCN(N3)C2=O)C(C)C)C1` [Compound A45], the IC50 fell in the range of 0.01 to 0.1 µM.

For the compound `CCn1c(-c2cnccc2COC)c2c3cc(ccc31)-c1cc(O)cc(c1)C[C@H](NC(=O)[C@H](C(C)C)N(C)C(=O)[C@H]1CCN(C(=O)/C=C/CN(C)C)C1)C(=O)N1CCC[C@H](N1)C(=O)OCC(C)(C)C2` [Compound A87], the IC50 was 0.01 to 0.1 µM.

Take `C=CC(=O)N1CC[C@H](C(=O)N(C)[C@H](C(=O)N[C@H]2Cc3cc(O)cc(c3)-c3ccc4c(c3)c(c(-c3ncccc3COC)n4CC)CC(C)(C)COC(=O)[C@@H]3CCCN(N3)C2=O)C(C)C)C1` [Compound A84]: the 50% inhibitory concentration (IC50) fell in the range of 0.1 to 1 µM.

Regarding `C=CC(=O)N1CC[C@H](C(=O)N(C)[C@H](C(=O)N[C@H]2Cc3cc(O)cc(c3)-c3ccc4c(c3)c(c(-c3cccnc3COC)n4CC#N)CC(C)(C)COC(=O)[C@@H]3CCCN(N3)C2=O)C(C)C)C1` [Compound A93], the IC50 was 0.01 to 0.1 µM.

As to `C=CC(=O)N1CC[C@H](C(=O)N(C)[C@H](C(=O)N[C@H]2Cc3cc(O)cc(c3)-c3ccc4c(c3)c(c(-c3ccc5c(c3)CCN(C)C5)n4CC)CC(C)(C)COC(=O)[C@@H]3CCCN(N3)C2=O)C(C)C)C1` [Compound A40], the IC50 lay in the range of 0.01 to 0.1 µM.

The assay is the same for the next values; noted with them: read-out: H358 Cell Viability assay data (K-Ras G12C, IC50); Table 5.
As for `C=CC(=O)N1CC[C@H](C(=O)N(C)[C@H](C(=O)N[C@H]2Cc3cccc(c3)-c3ccc4c(c3)c(c(-c3cc(C5=CCN(C)CC5)cnc3[C@H](C)OC)n4CC)CC(C)(C)COC(=O)[C@@H]3CCCN(N3)C2=O)C(C)C)C1` [Compound A514], the IC50 is 0.1 to 1 µM.

On to `C=CC(=O)N1CC[C@H](C(=O)N(C)[C@H](C(=O)N[C@H]2Cc3cccc(c3)-c3ccc4c(c3)c(c(-c3cc(C5CCN(C)CC5)cnc3[C@H](C)OC)n4CC)CC(C)(C)COC(=O)[C@@H]3CCCN(N3)C2=O)C(C)C)C1` (atropisomer, axis not shown) [Compound A515], for which the IC50 was below 0.01 µM.
